Results reported in patent US10441597B2, “Ciclesonide for the treatment of airway disease in horses” (Boehringer Ingelheim Vetmedica GmbH, priority 2012, dated 2019).
Read-outs that look alike come from different tables or passages of the source.

Experiments:
[1] = tested on: RAO horses; test: Moldy hay challenge study in RAO horses: lung function variables (transpulmonary pressure, lung resistance, lung elastance); format: in vivo, horse; details: dexamethasone 0.066 mg/kg per os once daily, after 14 days
Source text: (§1) The commercially available […]® is used in the study.

[2] = tested on: RAO horses; test: Moldy hay challenge study in RAO horses: clinical score (breathing effort score, weighted clinical score); format: in vivo, horse; details: dexamethasone 0.066 mg/kg per os once daily
Source text: as §1

[3] = tested on: segmented neutrophils and lymphocytes; test: Moldy hay challenge study in RAO horses: segmented neutrophil and lymphocyte counts; format: in vivo, horse; details: for Lymphocytes count after administration / Segmented neutrophil count after administration: dexamethasone 0.066 mg/kg per os once daily
Description: as §1
The segmented neutrophil counts and the lymphocyte counts are determined in the studies above: ciclesonide treatment versus dexamethasone treatment.

[4] = when taken orally; cited from earlier work
[5] = tested on: cortisol levels; details: humans; after aerosol administration/inhalation; cited from earlier work
[6] = tested on: cortisol levels; details: horses; after aerosol administration; cited from earlier work

| Lymphocytes count after administration ([3]; 1st ciclesonide study) | Segmented neutrophil count after administration ([3]; 1st ciclesonide study) | Lymphocytes count after administration ([3]; 2nd ciclesonide study) | Segmented neutrophil count after administration ([3]; 2nd ciclesonide study) | Neutrophilia and lymphopenia ([3]; after treatment with dexamethasone, 1st and 2nd ciclesonide studies (Table 2)) | Structure (SMILES) | All lung function variables compared to pretreatment values ([1]; 1st ciclesonide study, p<0.0001) | All lung function variables compared to pretreatment values ([1]; 2nd ciclesonide study, p=0.0009 to p<0.0001) | All lung function variables compared to pretreatment values ([1]; Budesonide study, p≤0.0001) | Breathing effort score ([2]; 1st ciclesonide study, any measured time point) | Weighted clinical score compared to pretreatment values ([2]; 2nd ciclesonide study, after 14 days, p=0.0001 to p<0.0001) | Clinical score compared to pretreatment values ([2]; Budesonide study, after 7 and 14 days, p=0.002 to p<0.0001) | Potency relative to prednisone [4] | Potency relative to the naturally occurring hormone cortisol [4] | Measured cortisol levels [5] | Measured cortisol levels [6] |
| --- | --- | --- | --- | --- | --- | --- | --- | --- | --- | --- | --- | --- | --- | --- | --- |
| decreased | increased | decreased | increased | commonly observed | C[C@@H]1C[C@H]2[C@@H]3CCC4=CC(=O)C=C[C@]4(C)[C@@]3(F)[C@@H](O)C[C@]2(C)[C@@]1(O)C(=O)CO [dexamethasone] | significantly reduced | significantly reduced | significantly reduced | no significant changes | significantly reduced | significantly reduced | 7 times | 27 times | – | – |
| – | – | – | – | – | C[C@@H]1C[C@H]2[C@@H]3C[C@H](F)C4=CC(=O)C=C[C@]4(C)[C@@]3(F)[C@@H](O)C[C@]2(C)[C@@]1(O)C(=O)SCF [fluticasone] | – | – | – | – | – | – | – | – | significant suppression | significant suppression |
